This is an account of results in patent US10669334B2, “Treatment for Dupuytren's disease” (Oxford University Innovation Limited, priority 2010, dated 2020).

One series has as its system palmar fibroblasts. Briefly: Culture force monitor: isometric force contraction of collagen gels seeded with palmar fibroblasts. Type of series: cell-based, human. As to conditions: 24 h; for isometric force contraction of palmar fibroblasts: 1 ng/ml, versus PS alone, FIG. 12 / FIG. 22. From the text: The culture force monitor (CFM) utilised and culture conditions are shown in FIGS. 3A to 3E: (A) Rectangular seeded collagen gels were cast and floated in medium, tethered between two flotation bars one of which is held stationary whilst the other is attached to a force transducer. (B) Cell-generated tensional forces in the collagen gel are detected by the force transducer, and live data are logged every 15 seconds providing a continuous output of force (dynes, […]) generated. (C) After 24 hour contraction, gels are harvested and processed for α-SMA mRNA, protein and immunofluorescence. (D) Cells were routinely seeded in gels with a high aspect-ratio collagen lattice, although low aspect-ratio lattices (E) were also used in experiments to compare effects of less strain on cell contractility. […]
Collagen gels seeded with palmar fibroblasts were cultured for 24 h with supernatants from AGE-(100 μg/ml) stimulated monocytes (M) in the absence or presence of anti TNF-α (10 μg/ml) and isometric force contraction quantified. Experiments were performed in duplicate. […]

Series [1] has as its system non-palmar dermal fibroblasts. Briefly: Culture force monitor: contraction rate of non-palmar dermal fibroblasts. As to conditions: 1 ng/ml; 24 h; one patient; FIG. 22. It is filed as cell-based, human. From the text:
The culture force monitor (CFM) utilised and culture conditions are shown in FIGS. 3A to 3E: (A) Rectangular seeded collagen gels were cast and floated in medium, tethered between two flotation bars one of which is held stationary whilst the other is attached to a force transducer. (B) Cell-generated tensional forces in the collagen gel are detected by the force transducer, and live data are logged every 15 seconds providing a continuous output of force (dynes, […]) generated. (C) After 24 hour contraction, gels are harvested and processed for α-SMA mRNA, protein and immunofluorescence. (D) Cells were routinely seeded in gels with a high aspect-ratio collagen lattice, although low aspect-ratio lattices (E) were also used in experiments to compare effects of less strain on cell contractility.
We then compared the effect of TNF-α on the rate of contraction on palmar skin and non-palmar skin from a Dupuytren's patient. Collagen gels seeded with palmar fibroblasts were cultured for 24 h in the absence (PS or NPS alone) or presence of TNF-α (1 ng/ml). Data are shown as +/−SD from triplicate experiments using cells from 3 patients for palmar skin and one patient non-palmar skin (**p=0.0012, ns=not significant). […]

For series [2] the following is noted: cited from earlier work.
A further series relates to human monocytes. The experiment in a line: TNF-α production by human monocytes (ELISA). It is filed as cell-based. As to the method: LPS, a pathogen associated molecular pattern (PAMP) is shown as positive control.
The known receptors for S100A8 are the receptor for advanced glycation end products (RAGE) and the Toll-like receptors 2 and 4. Human monocytes at 1×10^5/ml were incubated in 10% FCS with human S100 A8 at 0.5 with the addition of either antibody to TLR4, TLR2 or isotype controls (not shown), or soluble RAGE (sRAGE)) over 14 hours. TNF-α levels were determined by ELISA.
It is more difficult to show in vitro that HMGB1 also acts on monocytes to lead to pro-inflammatory cytokine release. […] Our experiment, the results of which are shown in FIG. 18, involved human monocytes at 1×10^5/ml incubated in 10% FCS with HMGB1 or LPS alone or together at concentrations shown over 14 hours. TNF-α levels were determined by ELISA.
For orientation: ELISA stands for enzyme-linked immunosorbent assay.

The next series has as its system murine bone marrow cells. Briefly: TNF-α production by murine bone marrow cells (wild type, TLR4-/-, MyD88-/-) by ELISA. It is filed as cell-based. As to conditions: TLR4-/- and MyD88-/- mice, FIG. 17. Here is the method: In FIG. 17, TNF-α produced by murine bone marrow cells of wild type, TLR4^−/− and MyD88^−/− mice on exposure to murine S100A8 were measured by ELISA.

The mark [3] stands for this setting: phase III clinical trial, Hurst et al 2009.
Setting [4] is: exposure to alarmin over tested range, FIG. 15.

Regarding AGEs, the “palmar fibroblast contraction with supernatants from AGE-stimulated monocytes” value in the series with palmar fibroblasts (AGE 100 μg/ml stimulated monocyte supernatant, absence or presence of anti TNF-α 10 μg/ml, FIG. 20) is “stimulated palmar fibroblast contraction in a TNF-α dependent manner”. In addition, in the series on palmar fibroblasts (AGEs-BSA 150 μg/ml, FIG. 14), the “contractility of palmar dermal fibroblasts” value was “not affected”.
For the molecule TNF-α, the “isometric force contraction of palmar fibroblasts” value in the series with palmar fibroblasts is listed as “significantly enhanced contraction”. Besides, in series [1], the “contraction rate of non-palmar dermal fibroblasts” value was “no change, or a slight reduction, in contraction rate”.
Take “TGF-β1: cytokine that leads to development of the myofibroblast phenotype”: in the series with palmar fibroblasts (10 ng/ml, compared to untreated palmar fibroblasts, p=0.0001, FIG. 12), the palmar fibroblast contractility result is “significant increased palmar fibroblast contractility”. In the series with palmar fibroblasts (TGF-β1, cells from 3 patients, FIG. 21), the “contractility of human palmar fibroblasts in collagen lattice under isometric conditions” value is “enhanced contractility”.
As to “bacterial collagenase: bacterial (Clostridial) collagenase for enzymatic fasciotomy, FDA approved as Xiaflex”, the “recurrence rates in patients with PIPJ contractures” value in series [2] (2 years follow-up, Badalamente et al 2007) is 57%. In addition, in series [2] (setting [3]), the “MCPJ contractures effectively treated (to within 5° of full extension)” value is given as 77% and the “PIPJ contractures effectively treated (to within 5° of full extension)” value is given as 40%.
With S100A8: Alarmin (DAMP) protein, human, in the series on human monocytes (setting [4]), the “TNF-α production by human monocytes” value is given as “produced TNF-α in a dose dependent manner”. Further, the “receptor mediating TNF-α production by human monocytes” value in the series on human monocytes (human S100 A8 at 0.5 with antibody to TLR4, TLR2 or soluble RAGE, 14 hours, FIG. 16) is “TLR-4 and not RAGE or TLR-2”. In addition, the “relative activity in TNF-α production by human monocytes” value in the series with human monocytes (within the tested range, FIG. 15) is “more active than S100A9 and S100A12”.

B1: HMGB1: high mobility group box protein, an Alarmin (DAMP) (protein, UniProt P09429 1-215, looked up)
High mobility group protein B1: MGKGDPKKPRGKMSSYAFFVQTCREEHKKKHPDASVNFSEFSKKCSERWKTMSAKEKGKFEDMAKADKARYEREMKTYIPPKGETKKKFKDPNAPKRPPSAFFLFCSEYRPKIKGEHPGLSIGDVAKKLGEMWNNTAADDKQPYEKKAAKLKEKYEKDIAAYRAKGKPDAAKKGVVKAEKSKKKKEEEEDEEDEEDEEEEEDEEDEDEEEDDDDE
On to B1, for which the “isometric force contraction of palmar fibroblasts” value in the series with palmar fibroblasts was “trend towards increased contraction resulting from HMGB1, this was not statistically significant”. For the same molecule, the “TNF-α production by human monocytes” value in the series on human monocytes (HMGB1 alone, 14 hours, FIG. 18) is reported as “does not stimulate TNF-α production by monocytes”; in the series with human monocytes (HMGB1 together with LPS, 14 hours, FIG. 18) it was “active in combination with LPS”.

B2: S100A9: Alarmin (DAMP) protein (protein, UniProt P06702 1-114, looked up)
Protein S100-A9: MTCKMSQLERNIETIINTFHQYSVKLGHPDTLNQGEFKELVRKDLQNFLKKENKNEKVIEHIMEDLDTNADKQLSFEEFIMLMARLTWASHEKMHEGDEGPGHHHKPGLGEGTP
Regarding B2, the “TNF-α production by human monocytes” value with human monocytes (setting [4]) is reported as “to some extent”.

B3: murine S100A8: murine Alarmin S100A8 (protein, UniProt P27005 2-89, looked up)
Protein S100-A8: PSELEKALSNLIDVYHNYSNIQGNHHALYKNDFKKMVTTECPQFVQNINIENLFRELDINSDNAINFEEFLAMVIKVGVASHKDSHKE
For the molecule B3, in the series with murine bone marrow cells, the “receptor/signalling dependence of TNF-α production” value is “predominantly binds to TLR-4 and that the intracellular signalling leading to TNF-α production by monocytes is entirely dependent on adaptor protein MyD88”.
